From paper PMC2951135 (Journal of medicinal chemistry, 2010)
“Also recorded” adds a separate entry of the source. Blank lines part the entries; values can stand above or below the compound they belong to.

Legend:
[1] = cited from earlier work
[2] = system: non iron-overloaded, bile duct-cannulated rats; conditions: po 300 μmol/kg; cited from earlier work
[3] = clinical trial abandoned by Genzyme; cited from earlier work
[4] = system: iron-overloaded C. apella primates; assay: Chelator-induced iron clearance in iron-overloaded primates; assay type: in vivo, Cebus apella monkeys
[5] = system: non iron-overloaded, bile duct-cannulated rats; assay type: in vivo, Sprague-Dawley rats
[6] = system: rats; assay: Ten-day toxicity trial in rats; assay type: in vivo, Sprague-Dawley rats
[7] = system: rats; assay: Tissue iron decorporation in rats after 10 days of dosing; assay type: in vivo, Sprague-Dawley rats
[8] = Hydrolysis of ester 7 in rat plasma; assay type: in vitro ADME; conditions: 37 °C, solubilized in DMSO
[9] = Hydrolysis of ester 7 in monkey plasma; assay type: in vitro ADME, Cebus apella monkeys; conditions: Cebus apella monkey plasma, 37 °C, solubilized in DMSO
[10] = Control incubation of ester 7 with saline in place of plasma; assay type: in vitro ADME; conditions: 37 °C, 1 or 2 h
[11] = pH 7.4
[12] = po 75 μmol/kg by gavage as monosodium salt
[13] = orally once daily 384 μmol/kg/d × 10 d

Structure (SMILES): C[C@]1(C(=O)O)CSC(c2ncccc2O)=N1 [Compound 1, (S)-4,5-dihydro-2-(3-hydroxy-2-pyridinyl)-4-methyl-4-thiazolecarboxylic acid]
nephrotoxicity [1]: severely nephrotoxic

Structure (SMILES): C[C@]1(C(=O)[O-])CSC(c2ccc(O)cc2O)=N1.[Na+] [Compound 2, (S)-2-(2,4-dihydroxyphenyl)-4,5-dihydro-4-methyl-4-thiazolecarboxylic acid]
relative percentage of the iron excreted in the bile (rodents) [2]: 100% | relative percentage of the iron excreted in the urine (rodents) [2]: 0% | toxicity that led to abandonment of the clinical trial [3]: nephrotoxicity; also recorded: renal toxicity

Structure (SMILES): COc1ccc(C2=N[C@@](C)(C(=O)[O-])CS2)c(O)c1.[Na+] [Compound 3, (S)-4,5-dihydro-2-(2-hydroxy-4-methoxyphenyl)-4-methyl-4-thiazolecarboxylic acid]
relative percentage of the iron excreted in the bile (rodents) [2]: 98% | relative percentage of the iron excreted in the urine (rodents) [2]: 2% | nephrotoxicity [1]: very nephrotoxic; also recorded: unacceptably nephrotoxic

Structure (SMILES): COCCOCCOCCOc1ccc(C2=N[C@@](C)(C(=O)O)CS2)c(O)c1 [Compound 4, (S)-4,5-dihydro-2-[2-hydroxy-4-(3,6,9-trioxadecyloxy)phenyl]-4-methyl-4-thiazolecarboxylic acid]
ICE in primates relative to the longer analogue 5 ([4]; monkey, in vivo): 2.5 | relative percentage of the iron excreted in the bile (rodents) [2]: 90% | relative percentage of the iron excreted in the urine (rodents) [2]: 10% | nephrotoxicity [1]: virtually absent of any nephrotoxicity

Structure (SMILES): COCCOCCOCCOCCOc1ccc(C2=N[C@@](C)(C(=O)[O-])CS2)c(O)c1.[Na+] [Compound 5, (S)-4,5-dihydro-2-[2-hydroxy-4-(3,6,9,12-tetraoxatridecyloxy)phenyl]-4-methyl-4-thiazolecarboxylic acid]
ICE in rodents relative to the parent 2 ([5]; po 300 μmol/kg): ~11 times

Structure (SMILES): COCCOCCOc1ccc(C2=N[C@@](C)(C(=O)O)CS2)c(O)c1 [Compound 6, (S)-4,5-dihydro-2-[2-hydroxy-4-(3,6-dioxaheptyloxy)phenyl]-4-methyl-4-thiazolecarboxylic acid]
Rodent Iron-Clearing Efficiency ([5]; po 300 μmol/kg in capsules, 48 h sample collection period): > 26% | Primate Iron-Clearing Efficiency [4, 12]: 28.7 ± 12.4% | relative percentage of the iron excreted in the urine (primates) [4, 12]: 17% | Primate Iron-Clearing Efficiency ([4]; po 75 μmol/kg in capsules): > 26% | relative percentage of the iron excreted in the feces (primates) ([4]; po 75 μmol/kg in capsules): 93% | Performance Ratio (mean ICEprimates/ICErodents) ([4]; primates given the monosodium salt by gavage, rodents capsules): 1.1 | histopathology [6, 13]: no obvious histopathologies; also recorded: cannot be reliably differentiated histologically from the tissues from rats in Group 2; also recorded: no histological abnormalities noted between the treated and the control groups | reduction in pancreatic iron vs untreated controls ([7]; capsules, 384 μmol/kg/d × 10 d): not when it was dosed in capsules | reduction in pancreatic iron vs untreated controls ([7]; gavage as sodium salt, 384 μmol/kg/d × 10 d): significant reduction in pancreatic iron

time for conversion of all of the ester to the active acid 6 [8]: 1 to 2 h | time for conversion of all of the ester to the active acid 6 [9]: 1 to 2 h | times more lipophilic than the parent 2 [11]: 11,220 times
Structure (SMILES): CCOC(=O)[C@@]1(C)CSC(c2ccc(OCCOCCOC)cc2O)=N1 [Compound 7, ethyl (S)-4,5-dihydro-2-[2-hydroxy-4-(3,6-dioxaheptyloxy)phenyl]-4-methyl-4-thiazolecarboxylate]
stability of the ester in saline [10]: all of the drug remained in the form of the ester | histopathology [6, 13]: Mild to moderate vacuolar degeneration of the proximal tubular epithelial cells; also recorded: unacceptable renal toxicity | histopathology ([6]; orally once daily in capsules 192 μmol/kg/d × 10 d): no drug-related abnormalities | decrease in cardiac iron vs untreated controls ([7]; capsules, 192 μmol/kg/d × 10 d): Neither dose was associated with a reduction in pancreatic or cardiac iron content | reduction in pancreatic iron vs untreated controls ([7]; capsules, 192 μmol/kg/d × 10 d): Neither dose was associated with a reduction in pancreatic or cardiac iron content | decrease in cardiac iron vs untreated controls ([7]; capsules, 384 μmol/kg/d × 10 d): Neither dose was associated with a reduction in pancreatic or cardiac iron content | reduction in pancreatic iron vs untreated controls ([7]; capsules, 384 μmol/kg/d × 10 d): Neither dose was associated with a reduction in pancreatic or cardiac iron content
